From US20190365641A1, “RAPIDLY DISINTEGRATING FORMULATIONS AND METHODS OF USE” (Impax Laboratories, Inc., priority 2013, published 2019)
In brackets after ≈: the same amount, converted by molar mass. Several values for one entry are separate records, joined by “and”; a condition that tells them apart may be missing. Equal values may be shown once. Where a name gives a salt, the structure may show the parent alone. Read-outs that look alike come from different tables or passages of the source.

Key:
[1] = Solubility of apomorphine in phosphate buffers at varying pH (Example 14); type: physicochemical; conditions: stirred ~18 hours
Method: The testing procedure was as followings: • 1. […] The samples were stirred for ˜18 hours before analysis. • 4. […] The samples were stirred for ˜18 hours before analysis. • 5. After stirring ˜2mL of the supernatant was obtained from each vial and centrifuge at 12000 RPM to precipitate un-dissolved drug. • 6. After centrifugations, approximately 1 mL of the supernatant was diluted with approximately 50 mL of water: methanol: H3PO4 (50:50:1.2 v/v) for HPLC analysis according to the procedure described in Example 13 above.

[2] = Dissolution in simulated saliva media (Example 15); type: physicochemical; conditions: simulated saliva pH 6.2, 37° C., two samples per time point, hydrochloride
Method: The dissolution of the composition as described in Example 5 was compared to the dissolution of USP grade apomorphine hydrochloride. The following procedure was employed to obtain the dissolution profiles: • 1.
• 3. Approximately 5 mL or 10 mL of pre-warmed simulated saliva was added to the vials of step 2 according to the table above, and a stop watch was started. The vials with the media were gently swirled to allow the powder in the vials to go into solution. • 4. At specific time points, samples of the media were withdrawn from the vials of step 3 and transferred into the barrel of a 10 mL syringe with a […] filter attached to the tip of the syringe. The solution was pushed through the filter and collected for HPLC assay according to the procedure described in Example 13 above. • 5. For sample time points longer than 5 minutes the vials of step 3 were placed in a 37° C. incubator and shaken at 50 rpms until the collection time point.

[3] = subcutaneous injections, on-off fluctuations in Parkinson's disease; cited from earlier work
[4] = sublingual apomorphine tablets, prolonged use; cited from earlier work

For CN1CCc2cccc3c2[C@H]1Cc1ccc(O)c(O)c1-3 [Apomorphine Free Base, 6αβ-aporphine-10, 11 diol], which solubility ([1]; pH 2.50 phosphate buffer, unit assumed) is on record?
The solubility was 9200 µg/mL (≈ 34.4 mM).

What about the solubility ([1]; pH 3.00 phosphate buffer, unit assumed) of the same compound?
The solubility was 3700 µg/mL (≈ 13.8 mM).

And the solubility ([1]; pH 4.00 phosphate buffer, unit assumed)?
The solubility was 2700 µg/mL (≈ 10.1 mM).

What about the solubility ([1]; pH 5.00 phosphate buffer, unit assumed) of the same compound?
Its solubility is 2500 µg/mL (≈ 9.35 mM).

What about the solubility ([1]; pH 6.00 phosphate buffer, unit assumed) of the same compound?
The solubility was 2000 µg/mL (≈ 7.48 mM).

And the solubility ([1]; pH 6.20 phosphate buffer, unit assumed)?
Its solubility is 1700 µg/mL (≈ 6.36 mM).

What about the solubility ([1]; pH 6.40 phosphate buffer, unit assumed) of the same compound?
Its solubility is 1700 µg/mL (≈ 6.36 mM).

What about the solubility ([1]; pH 6.60 phosphate buffer, unit assumed) of the same compound?
Its solubility is 1300 µg/mL (≈ 4.86 mM).

And the solubility ([1]; pH 6.80 phosphate buffer, unit assumed)?
Its solubility is 1200 µg/mL (≈ 4.49 mM).

And the solubility ([1]; pH 7.00 phosphate buffer, unit assumed)?
Its solubility is 670 µg/mL (≈ 2.51 mM).

What about the solubility ([1]; pH 7.40 phosphate buffer, unit assumed) of the same compound?
The solubility was 400 µg/mL (≈ 1.5 mM).

What about the solubility ([1]; pH 8.00 phosphate buffer, unit assumed) of the same compound?
Its solubility is 120 µg/mL (≈ 0.449 mM).

Which solubility ([1]; pH 2.50 phosphate buffer, hydrochloride, unit assumed) does the source give for CN1CCc2cccc3c2[C@H]1Cc1ccc(O)c(O)c1-3 [Apomorphine HCl, apomorphine hydrochloride] here?
Its solubility is 22800 µg/mL.

What about the solubility ([1]; pH 3.00 phosphate buffer, hydrochloride, unit assumed) of the same compound?
The solubility was 21600 µg/mL.

And the solubility ([1]; pH 4.00 phosphate buffer, hydrochloride, unit assumed)?
Its solubility is 20000 µg/mL.

What about the solubility ([1]; pH 5.00 phosphate buffer, hydrochloride, unit assumed) of the same compound?
Its solubility is 18800 µg/mL.

And the solubility ([1]; pH 6.00 phosphate buffer, hydrochloride, unit assumed)?
Its solubility is 7400 µg/mL.

What about the solubility ([1]; pH 6.20 phosphate buffer, hydrochloride, unit assumed) of the same compound?
Its solubility is 7200 µg/mL.

What about the solubility ([1]; pH 6.40 phosphate buffer, hydrochloride, unit assumed) of the same compound?
The solubility was 3700 µg/mL.

And the solubility ([1]; pH 8.00 phosphate buffer, hydrochloride, unit assumed)?
The solubility was 270 µg/mL.

What about the solubility ([1]; phosphate buffer, pH 6.6, aqueous buffer, thermodynamic from solid, pH 6.60 phosphate buffer, read-out: solubility) of the same compound?
The solubility was 1900 µg/mL.

And the solubility ([1]; phosphate buffer, pH 6.8, aqueous buffer, thermodynamic from solid, pH 6.80 phosphate buffer, read-out: solubility)?
Its solubility is 1400 µg/mL.

What about the solubility ([1]; phosphate buffer, pH 7, aqueous buffer, thermodynamic from solid, pH 7.00 phosphate buffer, read-out: solubility) of the same compound?
Its solubility is 1000 µg/mL.

What about the solubility ([1]; phosphate buffer, pH 7.4, aqueous buffer, thermodynamic from solid, pH 7.40 phosphate buffer, read-out: solubility) of the same compound?
Its solubility is 610 µg/mL.

What about the dissolution ([2]; 0.5 min) of the same compound?
The dissolution was 30.52% and 27.73%.

What about the dissolution ([2]; 1 min) of the same compound?
Its dissolution is 34.58% and 30.24%.

What about the dissolution ([2]; 5 min) of the same compound?
Its dissolution is 57.54% and 46.57%.

What about the dissolution ([2]; 10 min) of the same compound?
The dissolution was 46.00% and 52.29%.

What about the dissolution ([2]; 30 min) of the same compound?
Its dissolution is 53.23% and 74.97%.

And the dissolution ([2]; Initial)?
Its dissolution is 22.75% and 19.05%.

What does the source list for CN1CCc2cccc3c2[C@H]1Cc1ccc(O)c(O)c1-3 [apomorphine, 6αβ-aporphine-10, 11 diol]?
duration of effect [3]: 45 to 90 min; time to effect after administration [3]: 5 to 15 min; patients with buccal mucosal ulceration (severe stomatitis) [4]: approximately 30%
